Columns and labels:
[1] = test system: HepG2; assay: drug sensitivity score (DSS) for viability; higher = more toxic; extreme values may be limits of the assay; settings: 72 h
[2] = test system: Caco-2; assay: as above; settings: 72 h
[3] = test system: Calu-3; assay: as above; settings: 72 h
[4] = test system: Vero E6; assay: as above; settings: 72 h
[5] = test system: U2OS; assay: as above; settings: 72 h
[6] = test system: A549-ACE2 infected with SARS-CoV-2; assay: morphology score (similarity to uninfected cells); higher = more like uninfected cells; settings: 24 h
[7] = test system: A549-ACE2; assay: drug-induced phospholipidosis relative to tamoxifen; higher = more phospholipidosis
[8] = test system: A549-ACE2 infected with SARS-CoV-2; assay: SARS-CoV-2 infection rate relative to DMSO; higher = more infection; settings: 24 h
[9] = test system: HepG2; assay: relative viability EC50 (midpoint between 100% and the lowest measured viability); higher = less toxic; settings: 72 h
[10] = test system: Caco-2; assay: as above; settings: 72 h
[11] = test system: Calu-3; assay: as above; settings: 72 h
[12] = test system: Vero E6; assay: as above; settings: 72 h
[13] = test system: U2OS; assay: as above; settings: 72 h
[14] = test system: A549-ACE2 infected with SARS-CoV-2; assay: cell count relative to DMSO; higher = less toxic; settings: 24 h
[15] = test system: HepG2; assay: cell viability relative to DMSO; higher = less toxic; settings: 72 h
[16] = test system: Caco-2; assay: as above; settings: 72 h
[17] = test system: Calu-3; assay: as above; settings: 72 h
[18] = test system: Vero E6; assay: as above; settings: 72 h
[19] = test system: U2OS; assay: as above; settings: 72 h
[20] = test system: A549-ACE2; assay: phospholipidosis EC50; higher = less potent phospholipidosis inducer

c1ccc(-c2ccc(C(c3ccccc3)n3ccnc3)cc2)cc1 (centres undefined) [bifonazole]
Settings	drug sensitivity score	relative viability EC50 [µM]
[1]	0	–
[2]	1.2	–
[3]	0	–
[4]	0	–
[5]	0	–
[9]	–	> 10
[10]	–	> 10
[11]	–	> 10
[12]	–	> 10
[13]	–	> 10

Settings	SARS-CoV-2 infection rate, [8] [%]	cell count, [14] [%]	cell viability, [15] [%]	cell viability, [16] [%]	cell viability, [17] [%]	cell viability, [18] [%]	cell viability, [19] [%]	morphology score, [6]
1 nM	–	–	98.2	98	98.4	85.9	96.9	–
10 nM	–	–	97.1	99.7	95	91.2	95.9	–
100 nM	–	–	91.8	96.1	106	86.5	97.2	–
0.3 µM	91	99	–	–	–	–	–	0.26
1000 nM	–	–	98.6	94.9	97.1	91.5	95.2	–
3 µM	103	112	–	–	–	–	–	-0.04
10 µM	106	111	–	–	–	–	–	0.19
10000 nM	–	–	93.6	78.7	99.1	100	94.7	–
30 µM	89	102	–	–	–	–	–	0.57

drug-induced phospholipidosis [%], [7]
Settings	0.3 µM	0.833333 µM	3.33333 µM	6.66667 µM	10 µM	30 µM
24 h	-0.45	-9.45	-4.39	3.56	6	40.1
48 h	3.19	-4.19	2.93	5.02	14.4	44.7
72 h	2.27	-1.31	4.12	5.49	19.7	–

CCCCCCCCc1ccc(CCC(N)(CO)CO)cc1 [fingolimod]
Settings	drug sensitivity score	relative viability EC50 [µM]
[1]	5.8	–
[2]	3.3	–
[3]	5.8	–
[4]	0.2	–
[5]	0.9	–
[9]	–	3.02
[11]	–	2.73
[12]	–	> 10

Settings	SARS-CoV-2 infection rate [%]	cell count [%]	cell viability [%]	morphology score	phospholipidosis EC50 [µM]
[6], 0.3 µM	–	–	–	-0.2	–
[6], 3 µM	–	–	–	0.46	–
[6], 10 µM	–	–	–	0.74	–
[8], 0.3 µM	100	–	–	–	–
[8], 3 µM	64	–	–	–	–
[8], 10 µM	12	–	–	–	–
[14], 0.3 µM	–	100	–	–	–
[14], 3 µM	–	109	–	–	–
[14], 10 µM	–	114	–	–	–
[15], 1 nM	–	–	107	–	–
[15], 10 nM	–	–	105	–	–
[15], 100 nM	–	–	99.5	–	–
[15], 1000 nM	–	–	98	–	–
[15], 10000 nM	–	–	0.4	–	–
[16], 1 nM	–	–	101	–	–
[16], 10 nM	–	–	100	–	–
[16], 100 nM	–	–	87.2	–	–
[16], 1000 nM	–	–	93.8	–	–
[16], 10000 nM	–	–	55.7	–	–
[17], 1 nM	–	–	101	–	–
[17], 10 nM	–	–	104	–	–
[17], 100 nM	–	–	102	–	–
[17], 1000 nM	–	–	94.9	–	–
[17], 10000 nM	–	–	8.4	–	–
[18], 1 nM	–	–	105	–	–
[18], 10 nM	–	–	95.4	–	–
[18], 100 nM	–	–	105	–	–
[18], 1000 nM	–	–	101	–	–
[18], 10000 nM	–	–	84.7	–	–
[19], 1 nM	–	–	102	–	–
[19], 10 nM	–	–	105	–	–
[19], 100 nM	–	–	102	–	–
[19], 1000 nM	–	–	105	–	–
[19], 10000 nM	–	–	71.9	–	–
[20], 24 h	–	–	–	–	3.36
[20], 48 h	–	–	–	–	3.04
[20], 72 h	–	–	–	–	5.67

drug-induced phospholipidosis [%], [7]
Settings	0.3 µM	0.833333 µM	3.33333 µM	6.66667 µM	10 µM
24 h	9.06	18.8	83.3	124	138
48 h	8.05	10.9	84.5	114	135
72 h	4.63	6.35	49.7	102	130

Source: the supplement of paper PMC13380429
